Measured values from paper PMC8780741, “Integration of In Silico, In Vitro and In Situ Tools for the Preformulation and Characterization of a Novel Cardio-Neuroprotective Compound during the Early Stages of Drug Development” (Pharmaceutics, 2022).

How the values were obtained:
rat small intestine = test: In situ closed-loop (Doluisio) intestinal perfusion; assay type: in vivo; settings: 100 µM, n = 4
Protocol: The animal experiments, performed on 250–300 g male Wistar rats, were designed following the guidelines described in EC Directive 86/609, Council of the Europe Convention ETS 123 and Spanish national laws about the use of animals in research, and were approved by the Spanish Committee (Spain, code A1330354541263).
The “closed-loop” in situ perfusion method, based on the Doluisio technique, was performed according to published reports. Briefly, in anesthetized rats in which an abdominal incision was made, the small intestine was located and the bile duct was ligated avoiding enterohepatic circulation of the drug. The procedure for making three loops in the duodenum, jejunum, and ileum was the same as previously described. Intestinal contents were removed by washing with physiological solutions and the peritoneal cavity was covered with cotton wool pads to prevent evaporation of peritoneal fluid and loss of body heat.
A solution of JM-20 (100 µM) was perfused with one syringe, and 5 min later the sample was collected with the other syringe. This procedure was performed alternatively for 30 min to ensure mixing of the solution in the lumen of small intestine. Samples were immediately analyzed for JM-20 at maximum wavelengths (λmax = 262 nm) by HPLC (Alliance-Waters 2695) using a Nova-Pak C18 column (4 μM, 3.9 × 150 mm) and UV detector (Waters 2487). The analytical procedure was as follows previously validated. The exact length of the intestine was determined at the end of the study.
The calculation of permeability takes into account that water flux during the experiment can be significant, the drug concentration in each sample was modified according to the following Equation (3):(3) C=CeVT/V0 where Ct represents the concentration without water reabsorption at time t, Ce is the experimental concentration value, V0 is the initial volume and Vt is the final volume. The coefficient of absorption rate (ka) and the initial concentration of JM-20 available for absorption (C0) were determined by non-linear regression of the following Equation (4):(4) Ct=C0·e^−kat […]

[1] = set-up: method as in earlier work; settings: potentiometric titration; cited from earlier work
[2] = Human oral fraction absorbed estimated from rat intestinal permeability; settings: calculated from rat permeability values in all segments (whole small intestine)
Excerpt: The permeability values obtained in the different intestinal sections (See Table 4) corroborate the results obtained in the cell lines. […] This supports that if a compound has a high absorbed dose fraction, it will have a high-permeability, not necessarily in the jejunum, but somewhere along the relevant intestinal absortive regions. Correlations between permeability values in the rat small intestine (whole or segments) obtained by Doluisio’s method and their correlation with the orally absorbed fraction in humans were previously published. In fact, Fabs can be calculated considering the permeability values in all segments (whole small intestine) and the estimated oral absorbed fraction was 85.12%. According to this property, the drug may be a good candidate to be formulated for oral administration.

[3] = Apparent permeability across MDCK-MDR1 monolayers; assay type: in vitro ADME, Canine; settings: dog, 37 °C, stirring at 50 rpm
Protocol: MDCK (Madin–Darby Canine Kidney) cells, their transfected clone MDCK-MDR1, and Caco-2 cells were grown in the modified Dulbecco Eagle medium added with L-glutamine, fetal bovine serum and penicillin−streptomycin. The number of cells seeded in transwells with a surface area of 4.2 cm^2 depended on the cell line: 250,000 cells/cm^2 for MDCK and Caco-2 and 150,000 cells/cm^2 for MDCK-MDR1. Experiments were performed between 7 and 9 days for MDCK and MDCK-MDR1 and between 19 and 21 for Caco-2 cells after seeding. Prior to drug placement, cell monolayer integrity was assessed by measuring transepithelial electrical resistance (TEER). Transport studies were performed on an orbital shaker at 37 °C and 50 rpm. Four samples of 200 μL were taken from the receptor side at 0, 15, 30, 60 and 90 min, and two samples from the donor compartment at the beginning and end of the experiment. A standard experiment was performed with the same buffer for the apical and basolateral compartments in the apical to basolateral (A-B) and basolateral to apical (B-A) directions. The drug concentration was 100 μM in all experiments and samples were analyzed immediately by HPLC. The retention time was 2.3 min at maximum wavelengths (λmax = 260 nm). […] The lower limit of quantitation of JM-20 was adequate to interpolate the values obtained in the samples. […]

Peff ± SD (rat small intestine; Duodenum): 9.20 ± 0.89 ×10^−5 cm/s | Peff ± SD (rat small intestine; Ileum): 6.82 ± 1.44 ×10^−5 cm/s | Peff ± SD (rat small intestine; Jejunum): 6.63 ± 1.30 ×10^−5 cm/s | Estimated oral absorbed fraction (Fabs) in humans [2]: 85.12% | Papp A→B at 90 min, 100 µM [3]: 21.7 ± 2.2 ×10⁻⁶ cm/s | Papp B→A at 90 min, 100 µM [3]: 9.6 ± 0.5 ×10⁻⁶ cm/s
SMILES: CCOC(=O)C1=C(C)NC2=C(C=Nc3ccccc3N2)C1c1ccccc1[N+](=O)[O-] (stereo not shown) [JM-20, 3-ethoxycarbonyl-2-methyl-4-(2-nitrophenyl)-4,11-dihydro-1H-pyrido [2,3-b][1,5] benzodiazepine]
pKa [1]: 5.25
